Assay results taken from PubChem BioAssay (NCI).
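Results reflect a 48-hour exposure of cells in 96-well plates to compound at five concentrations. At the GI50, growth is halved. TGI denotes the concentration required for complete inhibition of growth.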

Legend:
Experiment in all cases: NCI tumour cell line growth inhibition, 48 h
CAKI-1 renal = system: CAKI-1 renal
CCRF-CEM leukemia = system: CCRF-CEM leukemia
HOP-62 NSCLC = system: HOP-62 NSCLC
HT29 colon = system: HT29 colon
KM12 colon = system: KM12 colon
LOX IMVI melanoma = system: LOX IMVI melanoma
TK-10 renal = system: TK-10 renal
UACC-62 melanoma = system: UACC-62 melanoma
M14 melanoma = system: M14 melanoma
MDA-N = system: MDA-N
NCI-H226 lung = system: NCI-H226 lung

NCCCn1c2c(c3ccc([N+](=O)[O-])cc3c1=O)C(=O)c1cc3c(cc1-2)OCO3
GI50 (CAKI-1 renal): < 0.01 µM | TGI (CAKI-1 renal): 0.491 µM | GI50 (CCRF-CEM leukemia): 0.0164 µM | TGI (CCRF-CEM leukemia): > 100 µM | GI50 (HOP-62 NSCLC): 1.43 µM | TGI (HOP-62 NSCLC): > 100 µM | GI50 (HT29 colon): 0.148 µM | TGI (HT29 colon): > 100 µM | GI50 (KM12 colon): 0.321 µM | TGI (KM12 colon): 4.42 µM | GI50 (LOX IMVI melanoma): < 0.01 µM | TGI (LOX IMVI melanoma): 0.121 µM | GI50 (TK-10 renal): 1.83 µM | TGI (TK-10 renal): 4.98 µM | GI50 (UACC-62 melanoma): 0.0288 µM | TGI (UACC-62 melanoma): 1.65 µM

c1ccc(C(CCN2CCCC2)c2ccccn2)cc1 (stereo not drawn)
TGI (CAKI-1 renal): > 100 µM | TGI (HOP-62 NSCLC): > 100 µM | TGI (HT29 colon): > 100 µM | TGI (KM12 colon): > 100 µM | TGI (LOX IMVI melanoma): > 100 µM | TGI (M14 melanoma): > 100 µM | TGI (MDA-N): > 100 µM | TGI (NCI-H226 lung): > 100 µM | TGI (TK-10 renal): > 100 µM | TGI (UACC-62 melanoma): > 100 µM

C=C(C)CC1=C(C(=S)NCCO[Si](C)(C)C(C)(C)C)C(OCC)(OCC)C1=O
TGI (CAKI-1 renal): 31.9 µM | TGI (CCRF-CEM leukemia): > 100 µM | TGI (HOP-62 NSCLC): 34.3 µM | TGI (HT29 colon): > 100 µM | TGI (KM12 colon): 45.9 µM | TGI (LOX IMVI melanoma): 56.9 µM | TGI (M14 melanoma): 35 µM | TGI (MDA-N): 43.2 µM | TGI (TK-10 renal): 34.8 µM | TGI (UACC-62 melanoma): 33.4 µM

C=C1c2nc3ccccc3n2C=C(c2ccc(Cl)cc2)N1c1ccccc1
TGI (CAKI-1 renal): 39.4 µM | TGI (CCRF-CEM leukemia): > 100 µM | TGI (KM12 colon): 24.7 µM | TGI (LOX IMVI melanoma): > 100 µM | TGI (M14 melanoma): 36.4 µM | TGI (MDA-N): > 100 µM | TGI (NCI-H226 lung): 3.72 µM | TGI (TK-10 renal): 24.8 µM | TGI (UACC-62 melanoma): 66.2 µM

NCCCCNCCCN
TGI (CAKI-1 renal): 3.1 µM | TGI (HOP-62 NSCLC): > 100 µM | TGI (HT29 colon): > 100 µM | TGI (KM12 colon): > 100 µM | TGI (LOX IMVI melanoma): > 100 µM | TGI (M14 melanoma): > 100 µM | TGI (NCI-H226 lung): > 100 µM | TGI (TK-10 renal): > 100 µM | TGI (UACC-62 melanoma): > 100 µM

CCOC(=O)/C=C(/C(=O)OCC)n1c(=O)c(C)cn(C2CC(N=[N+]=[N-])C(CO)O2)c1=O (stereo not drawn)
TGI (CAKI-1 renal): 83.9 µM | TGI (HOP-62 NSCLC): > 100 µM | TGI (HT29 colon): > 100 µM | TGI (KM12 colon): > 100 µM | TGI (LOX IMVI melanoma): > 100 µM | TGI (M14 melanoma): > 100 µM | TGI (MDA-N): > 100 µM | TGI (NCI-H226 lung): > 100 µM | TGI (TK-10 renal): > 100 µM | TGI (UACC-62 melanoma): > 100 µM

CCC(=N\NC(N)=S)/C(C)=N/O
TGI (CAKI-1 renal): > 100 µM | TGI (HOP-62 NSCLC): > 100 µM | TGI (HT29 colon): > 100 µM | TGI (KM12 colon): > 100 µM | TGI (LOX IMVI melanoma): > 100 µM | TGI (M14 melanoma): > 100 µM | TGI (MDA-N): > 100 µM | TGI (NCI-H226 lung): > 100 µM | TGI (TK-10 renal): > 100 µM | TGI (UACC-62 melanoma): > 100 µM

COC(=O)C[C@H](COCc1ccccc1)NC(=O)C[C@H](COCc1ccccc1)NC(=O)C[C@H](COCc1ccccc1)NC(=O)OC(C)(C)C
TGI (CAKI-1 renal): > 100 µM | TGI (CCRF-CEM leukemia): > 100 µM | TGI (HOP-62 NSCLC): 48 µM | TGI (HT29 colon): > 100 µM | TGI (KM12 colon): > 100 µM | TGI (LOX IMVI melanoma): > 100 µM | TGI (M14 melanoma): > 100 µM | TGI (MDA-N): > 100 µM | TGI (NCI-H226 lung): > 100 µM | TGI (UACC-62 melanoma): > 100 µM

CCCCCCC(CCl)c1sc(-c2csc(CCNC(=O)OC(C)(C)C)n2)nc1C(=O)OC (stereo not drawn)
TGI (CAKI-1 renal): > 100 µM | TGI (CCRF-CEM leukemia): > 100 µM | TGI (HOP-62 NSCLC): > 100 µM | TGI (HT29 colon): 51.2 µM | TGI (KM12 colon): 80.5 µM | TGI (LOX IMVI melanoma): 25.9 µM | TGI (MDA-N): 87.9 µM | TGI (TK-10 renal): > 100 µM | TGI (UACC-62 melanoma): 38.9 µM

CN(C)CCCNC(=O)c1cc(NC(=O)c2cc(NC(=O)c3cc(NC(=O)CCCn4ccc(CO)c4CO)cn3C)cn2C)cn1C
TGI (CAKI-1 renal): > 100 µM | TGI (CCRF-CEM leukemia): > 100 µM | TGI (KM12 colon): > 100 µM | TGI (LOX IMVI melanoma): > 100 µM | TGI (MDA-N): > 100 µM | TGI (NCI-H226 lung): 13.9 µM | TGI (TK-10 renal): 72.4 µM | TGI (UACC-62 melanoma): 37.9 µM

CCN(CC)C(=O)c1c(N2CCOCC2)cc(N(CC)CC)oc1=O
TGI (CCRF-CEM leukemia): > 100 µM | TGI (HOP-62 NSCLC): > 100 µM | TGI (HT29 colon): > 100 µM | TGI (KM12 colon): > 100 µM | TGI (LOX IMVI melanoma): > 100 µM | TGI (M14 melanoma): > 100 µM | TGI (NCI-H226 lung): > 100 µM | TGI (TK-10 renal): > 100 µM | TGI (UACC-62 melanoma): > 100 µM

Oc1[nH]c2ccccc2c1N=NC(=S)N1CCCCCC1
TGI (CAKI-1 renal): 4.62 µM | TGI (HOP-62 NSCLC): 4.09 µM | TGI (HT29 colon): 10.8 µM | TGI (KM12 colon): 2.22 µM | TGI (LOX IMVI melanoma): 2.41 µM | TGI (M14 melanoma): 2.52 µM | TGI (MDA-N): 22.7 µM | TGI (NCI-H226 lung): 4.45 µM | TGI (TK-10 renal): 7.86 µM | TGI (UACC-62 melanoma): 2.5 µM

C1OCN2c3nonc3N3COCN4c5nonc5N1C2C43 (stereo not drawn)
TGI (CAKI-1 renal): > 100 µM | TGI (CCRF-CEM leukemia): > 100 µM | TGI (HT29 colon): > 100 µM | TGI (KM12 colon): > 100 µM | TGI (M14 melanoma): > 100 µM | TGI (MDA-N): > 100 µM | TGI (NCI-H226 lung): > 100 µM | TGI (TK-10 renal): > 100 µM | TGI (UACC-62 melanoma): > 100 µM

Oc1c(I)cc(I)cc1CNCCCN(Cc1ccccn1)Cc1ccccn1
GI50 (CAKI-1 renal): 0.896 µM | TGI (CAKI-1 renal): 1.74 µM | GI50 (CCRF-CEM leukemia): 1.54 µM | TGI (CCRF-CEM leukemia): 50 µM | GI50 (HOP-62 NSCLC): 1.02 µM | TGI (HOP-62 NSCLC): 2.35 µM | GI50 (HT29 colon): 1.74 µM | TGI (HT29 colon): 10.2 µM | GI50 (KM12 colon): 0.986 µM | TGI (KM12 colon): 1.97 µM | GI50 (LOX IMVI melanoma): 0.926 µM | TGI (LOX IMVI melanoma): 1.77 µM | GI50 (NCI-H226 lung): 0.902 µM | TGI (NCI-H226 lung): 2 µM | GI50 (TK-10 renal): 0.922 µM | TGI (TK-10 renal): 1.8 µM | GI50 (UACC-62 melanoma): 0.907 µM | TGI (UACC-62 melanoma): 1.74 µM

O=C(NCCO)c1c(O)c2ccccc2[nH]c1=O
TGI (CAKI-1 renal): > 100 µM | TGI (CCRF-CEM leukemia): > 100 µM | TGI (HOP-62 NSCLC): > 100 µM | TGI (HT29 colon): > 100 µM | TGI (KM12 colon): > 100 µM | TGI (LOX IMVI melanoma): > 100 µM | TGI (MDA-N): > 100 µM | TGI (NCI-H226 lung): > 100 µM | TGI (TK-10 renal): > 100 µM

COC(=O)C1=C(OC(=O)/C(=C/c2ccc(Cl)cc2)c2ccccc2)C(C(=O)OC)[C@@]2(O)[C@@H](C(=O)OC)[C@H](C)C[C@@H]1[C@@H]2C(=O)OC (stereo partly drawn)
TGI (CAKI-1 renal): > 100 µM | TGI (CCRF-CEM leukemia): > 100 µM | TGI (HOP-62 NSCLC): > 100 µM | TGI (HT29 colon): > 100 µM | TGI (KM12 colon): > 100 µM | TGI (LOX IMVI melanoma): > 100 µM | TGI (M14 melanoma): > 100 µM | TGI (NCI-H226 lung): > 100 µM | TGI (TK-10 renal): > 100 µM | TGI (UACC-62 melanoma): > 100 µM

Cc1ccc([N+](=O)[O-])cc1S(=O)(=O)Nc1ccc(C2=NN(c3ccc([N+](=O)[O-])cc3[N+](=O)[O-])C(c3ccccc3O)C2)cc1 (stereo not drawn)
TGI (CAKI-1 renal): > 100 µM | TGI (CCRF-CEM leukemia): > 100 µM | TGI (HOP-62 NSCLC): > 100 µM | TGI (HT29 colon): > 100 µM | TGI (KM12 colon): > 100 µM | TGI (LOX IMVI melanoma): > 100 µM | TGI (M14 melanoma): > 100 µM | TGI (MDA-N): > 100 µM | TGI (NCI-H226 lung): > 100 µM | TGI (TK-10 renal): > 100 µM

CC(=O)OCC1OC(OCC2OC(N3C(=S)N[C@H]([C@@H](O)[C@H](O)[C@H](O)CO)[C@H]3O)C(OC(C)=O)C(OC(C)=O)C2OC(C)=O)C(OC(C)=O)C(OC(C)=O)C1OC(C)=O (stereo partly drawn)
TGI (CAKI-1 renal): > 100 µM | TGI (HOP-62 NSCLC): > 100 µM | TGI (HT29 colon): > 100 µM | TGI (KM12 colon): > 100 µM | TGI (M14 melanoma): > 100 µM | TGI (MDA-N): > 100 µM | TGI (TK-10 renal): > 100 µM | TGI (UACC-62 melanoma): > 100 µM

C=C1C(=O)[C@]23[C@H](O)[C@H]1CC[C@H]2[C@@]12CO[C@@]3(O)C[C@@H]1C(C)(C)CC[C@@H]2O
TGI (CAKI-1 renal): > 25 µM | TGI (CCRF-CEM leukemia): > 25 µM | TGI (HOP-62 NSCLC): > 25 µM | TGI (HT29 colon): > 25 µM | TGI (KM12 colon): 18.4 µM | TGI (LOX IMVI melanoma): 13.9 µM | TGI (MDA-N): > 25 µM | TGI (NCI-H226 lung): > 25 µM | TGI (TK-10 renal): > 25 µM

CCOC(OCC)C(CCc1ccccc1)c1c(N)nc(N)[nH]c1=O (stereo not drawn)
TGI (CAKI-1 renal): > 100 µM | TGI (CCRF-CEM leukemia): > 100 µM | TGI (HOP-62 NSCLC): > 100 µM | TGI (HT29 colon): > 100 µM | TGI (KM12 colon): > 100 µM | TGI (LOX IMVI melanoma): > 100 µM | TGI (M14 melanoma): > 100 µM | TGI (NCI-H226 lung): > 100 µM | TGI (TK-10 renal): > 100 µM | TGI (UACC-62 melanoma): > 100 µM
